Assay [1] deals with T1, GABAA receptor α2β3γ2 (Homo sapiens, UniProt P18507+P47869).
T1 construct: expressed in transfected cells; host or cells: Xenopus laevis oocytes injected with cRNA
The assay can be described thus: Two-electrode voltage-clamp potentiation of GABA EC10 current in Xenopus oocytes, GABAA2. The conditions noted are these: percentage potentiation of GABA EC10 current divided by that of diazepam. The format is cell-based. The method, boiled down:
(§1)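 Human GABAA receptors expressed in Xenopus oocytes by cRNA injection (α:β:γ molar ratio ~1:1:10 for α1β2γ2, 1:1:1 for α2β3γ2), recorded 2-10 days later by two-electrode voltage clamp at −60 mV in ND-96, pH 7.5. Modulator preapplied 30 s before GABA at per-oocyte EC10. Peak-current percent potentiation over GABA alone, normalised to diazepam.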

The target in assay [2] is T2, GABAA receptor α1β2γ2 (Homo sapiens, UniProt P14867+P18507).
T2 construct: expressed in transfected cells; host or cells: Xenopus laevis oocytes injected with cRNA
T2 sequence (P14867 28-456): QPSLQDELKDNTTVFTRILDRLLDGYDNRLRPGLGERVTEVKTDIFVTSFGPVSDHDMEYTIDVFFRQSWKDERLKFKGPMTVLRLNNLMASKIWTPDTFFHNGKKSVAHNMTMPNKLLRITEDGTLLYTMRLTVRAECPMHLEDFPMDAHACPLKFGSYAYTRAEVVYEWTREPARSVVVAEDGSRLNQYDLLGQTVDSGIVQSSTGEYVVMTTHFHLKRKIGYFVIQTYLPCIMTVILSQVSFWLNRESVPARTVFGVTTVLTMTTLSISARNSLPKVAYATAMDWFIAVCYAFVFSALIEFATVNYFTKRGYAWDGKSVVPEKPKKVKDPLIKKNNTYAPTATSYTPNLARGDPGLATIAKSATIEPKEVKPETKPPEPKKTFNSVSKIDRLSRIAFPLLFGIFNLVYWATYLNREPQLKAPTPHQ
T2 sequence (P47870 25-512 partner limits assumed): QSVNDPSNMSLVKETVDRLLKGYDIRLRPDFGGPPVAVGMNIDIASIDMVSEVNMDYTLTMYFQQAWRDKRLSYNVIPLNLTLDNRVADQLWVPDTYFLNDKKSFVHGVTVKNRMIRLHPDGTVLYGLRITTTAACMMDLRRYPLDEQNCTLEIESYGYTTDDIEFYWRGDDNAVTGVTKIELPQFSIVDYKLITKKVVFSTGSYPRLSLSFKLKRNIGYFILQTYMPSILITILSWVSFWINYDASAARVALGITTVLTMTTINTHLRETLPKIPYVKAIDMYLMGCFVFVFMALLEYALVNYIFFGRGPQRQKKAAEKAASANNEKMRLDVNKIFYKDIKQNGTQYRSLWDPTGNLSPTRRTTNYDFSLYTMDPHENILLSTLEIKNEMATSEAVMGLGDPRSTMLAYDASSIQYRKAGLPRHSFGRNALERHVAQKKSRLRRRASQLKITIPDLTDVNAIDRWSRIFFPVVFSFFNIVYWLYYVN
T2 sequence (P18507 40-475): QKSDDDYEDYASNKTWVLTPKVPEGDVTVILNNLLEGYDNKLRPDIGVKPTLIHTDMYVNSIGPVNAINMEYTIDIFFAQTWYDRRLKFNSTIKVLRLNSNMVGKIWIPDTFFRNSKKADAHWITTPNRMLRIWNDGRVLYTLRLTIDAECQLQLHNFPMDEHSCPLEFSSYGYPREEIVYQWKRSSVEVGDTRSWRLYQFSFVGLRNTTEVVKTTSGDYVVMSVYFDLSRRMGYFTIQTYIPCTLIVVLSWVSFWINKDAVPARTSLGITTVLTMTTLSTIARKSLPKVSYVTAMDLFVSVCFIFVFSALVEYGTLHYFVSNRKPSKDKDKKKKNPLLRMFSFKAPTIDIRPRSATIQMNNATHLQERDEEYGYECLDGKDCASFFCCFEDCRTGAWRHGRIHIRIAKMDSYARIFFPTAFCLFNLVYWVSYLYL
The assay can be described thus: Two-electrode voltage-clamp potentiation of GABA EC10 current in Xenopus oocytes, GABAA1. The format is cell-based. The conditions noted are these: percentage potentiation of GABA EC10 current divided by that of diazepam. The method, boiled down: as §1

In assay [3] the target is T3, GABAA2 receptors (α2, β3, γ2 receptor subunits transfected into Sf9 cells) (Homo sapiens, UniProt P18507+P47869).
T3 construct: host or cells: Sf9 cells (membranes)
T3 sequence (P47869 29-451): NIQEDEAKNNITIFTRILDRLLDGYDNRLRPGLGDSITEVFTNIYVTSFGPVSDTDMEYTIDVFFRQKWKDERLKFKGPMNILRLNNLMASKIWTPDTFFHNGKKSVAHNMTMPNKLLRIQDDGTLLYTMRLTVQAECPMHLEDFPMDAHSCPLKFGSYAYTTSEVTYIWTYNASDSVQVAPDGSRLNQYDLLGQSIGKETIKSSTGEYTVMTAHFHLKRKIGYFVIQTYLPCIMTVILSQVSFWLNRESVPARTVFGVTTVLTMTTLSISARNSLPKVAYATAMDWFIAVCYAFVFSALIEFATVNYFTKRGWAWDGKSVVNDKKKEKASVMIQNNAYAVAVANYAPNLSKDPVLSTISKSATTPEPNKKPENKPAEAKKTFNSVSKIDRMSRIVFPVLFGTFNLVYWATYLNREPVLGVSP
T3 sequence (P28472 26-473 partner): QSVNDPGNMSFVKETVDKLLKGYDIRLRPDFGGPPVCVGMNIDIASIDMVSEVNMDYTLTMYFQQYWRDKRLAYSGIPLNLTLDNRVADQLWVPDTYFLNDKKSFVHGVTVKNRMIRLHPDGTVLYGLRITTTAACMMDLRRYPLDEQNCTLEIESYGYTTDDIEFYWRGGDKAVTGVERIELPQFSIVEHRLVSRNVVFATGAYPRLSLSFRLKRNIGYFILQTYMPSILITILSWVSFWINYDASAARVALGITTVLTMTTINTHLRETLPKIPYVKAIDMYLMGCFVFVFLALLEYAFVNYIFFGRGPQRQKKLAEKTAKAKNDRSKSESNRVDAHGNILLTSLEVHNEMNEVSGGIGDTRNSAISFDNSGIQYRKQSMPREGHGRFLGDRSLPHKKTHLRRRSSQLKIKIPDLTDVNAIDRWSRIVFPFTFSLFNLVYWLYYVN
T3 sequence (P18507 40-475): as the sequence (P18507 40-475) above
The experiment in a line: GABAA2 Binding Method ([3H]-Flunitrazepam displacement). The conditions noted are these: [3H]-Flunitrazepam ~2 nM, α2β3γ2 Sf9 membranes, 1 hr at 4° C. The method, boiled down: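 Membranes from Sf9 cells expressing α2β3γ2 GABAA receptors incubated with ~2 nM (final) [3H]-flunitrazepam and test compound 1 h at 4 °C, then filtered on GF/B plates with cold-buffer washes. Flumazenil-defined controls; percent of control, IC50 and Ki calculated.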

T1 sequence (P47869 29-451): as the sequence (P47869 29-451) above
T1 sequence (P28472 26-473 partner): as the sequence (P28472 26-473 partner) above
T1 sequence (P18507 40-475): as the sequence (P18507 40-475) above

On to `CCN1Cc2nc3c(-c4ccc(F)c(OC)c4)cccc3c(N)c2C1=O` [9-Amino-2-ethyl-5-(4-fluoro-3-methoxyphenyl)-2,3-dihydropyrrolo[3,4-b]quinolin-1-one], for which the “Relative Potentiation for GABAA2” value in assay [1] came out at 0.18. Moreover, the “Relative Potentiation for GABAA1” value in assay [2] was determined as 0.09. The Ki (commonly a dissociation constant, usually derived from enzyme kinetics or from competition with a known ligand) in assay [3] worked out at 25.5 nM.

Turning to `CCN1Cc2nc3c(-c4cnccc4C)cccc3c(N)c2C1=O` [9-Amino-2-ethyl-5-(4-methylpyridin-3-yl)-2,3-dihydropyrrolo[3,4-b]quinolin-1-one], in assay [1], the “Relative Potentiation for GABAA2” value came out at 0.14. The “Relative Potentiation for GABAA1” value in assay [2] is on record as 0.08. This molecule also gave a Ki in assay [3] of 23.4 nM.

Regarding `CCN1Cc2nc3c(-c4cc(F)ccc4OC)cccc3c(N)c2C1=O` [9-Amino-2-ethyl-5-(5-fluoro-2-methoxyphenyl)-2,3-dihydropyrrolo[3,4-b]quinolin-1-one], the “Relative Potentiation for GABAA2” value in assay [1] turned out to be 0.17. In addition, the “Relative Potentiation for GABAA1” value in assay [2] is given as 0.054. For the same molecule, the Ki in assay [3] was 27.4 nM.

In the case of `CCN1Cc2nc3c(-c4cc(OC)ccc4F)c(F)ccc3c(N)c2C1=O` [9-Amino-2-ethyl-6-fluoro-5-(2-fluoro-5-methoxyphenyl)-2,3-dihydropyrrolo[3,4-b]quinolin-1-one], in assay [1], the “Relative Potentiation for GABAA2” value amounted to 0.17. Further, the “Relative Potentiation for GABAA1” value in assay [2] stood at 0.005. The molecule also displayed a Ki in assay [3] of 1.4 nM.

As for `CCN1Cc2nc3c(-c4c(F)cccc4OC)c(F)ccc3c(N)c2C1=O` [9-Amino-2-ethyl-6-fluoro-5-(2-fluoro-6-methoxyphenyl)-2,3-dihydropyrrolo[3,4-b]quinolin-1-one], the “Relative Potentiation for GABAA2” value in assay [1] amounted to 0.093. Also, in assay [2], the “Relative Potentiation for GABAA1” value is on record as −0.12. The molecule further had a Ki in assay [3] of 3.47 nM.

For the molecule `CCN1Cc2nc3c(-c4cnccc4C)c(F)ccc3c(N)c2C1=O` [9-Amino-2-ethyl-6-fluoro-5-(4-methylpyridin-3-yl)-2,3-dihydropyrrolo[3,4-b]quinolin-1-one], the “Relative Potentiation for GABAA2” value in assay [1] was found to be 0.094. In addition, the “Relative Potentiation for GABAA1” value in assay [2] is on record as −0.0025. The affinity in assay [3], expressed as Ki, was 2.01 nM.

Turning to `CCN1Cc2nc3c(-c4ccc(OC)cc4OC)c(F)ccc3c(N)c2C1=O` [9-Amino-5-(2,4-dimethoxy-phenyl)-2-ethyl-6-fluoro-2,3-dihydropyrrolo[3,4-b]quinolin-1-one], the “Relative Potentiation for GABAA2” value in assay [1] worked out at 0.11. Besides, the “Relative Potentiation for GABAA1” value in assay [2] amounted to 0.072. The molecule also registered a Ki in assay [3] of 4.84 nM.

In the case of `COc1ccc(Cl)c(-c2cccc3c(N)c4c(nc23)CN(C2CC2)C4=O)c1` [9-Amino-5-(2-chloro-5-methoxyphenyl)-2-cyclopropyl-2,3-dihydropyrrolo[3,4-b]quinolin-1-one], the “Relative Potentiation for GABAA2” value in assay [1] was determined as 0.14. For the same molecule, the “Relative Potentiation for GABAA1” value in assay [2] worked out at 0.068. Moreover, the affinity in assay [3], expressed as Ki, was 33.2 nM.

As for `COc1cccc(-c2cccc3c(N)c4c(nc23)CN(C)C4=O)c1F` [9-Amino-5-(2-fluoro-3-methoxyphenyl)-2-methyl-2,3-dihydropyrrolo[3,4-b]quinolin-1-one], the “Relative Potentiation for GABAA2” value in assay [1] is 0.11. The “Relative Potentiation for GABAA1” value in assay [2] was 0.09. In assay [3], this molecule came in with a Ki of 32.5 nM.

On to `COc1cccc(F)c1-c1cccc2c(N)c3c(nc12)CN(C1CC(C)C1)C3=O` (stereo not drawn) [9-Amino-5-(2-fluoro-6-methoxyphenyl)-2-(3-methylcyclobutyl)-2,3-dihydropyrrolo[3,4-b]quinolin-1-one], for which the “Relative Potentiation for GABAA2” value in assay [1] was found to be 0.36. Besides, in assay [2], the “Relative Potentiation for GABAA1” value is reported as 0.11. Also, in assay [3], the affinity corresponds to a Ki of 3.75 nM.

`COc1cccc(F)c1-c1cccc2c(N)c3c(nc12)CN(C(C)C)C3=O` [9-Amino-5-(2-fluoro-6-methoxyphenyl)-2-isopropyl-2,3-dihydropyrrolo[3,4-b]quinolin-1-one]: in assay [1], the “Relative Potentiation for GABAA2” value was 0.15. Moreover, in assay [2], the “Relative Potentiation for GABAA1” value was −0.16. In assay [3], the Ki was determined as 26.8 nM.

For the origin of these results see patent US20080318943A1, “Compounds and Uses Thereof - 848” (ASTRAZENECA AB, priority 2007, published 2008).
